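1) Cells in 96-well plates. 2) Compound, 48 h, 5 concentrations. 3) Linear interpolation between surrounding doses. 4) Unreached endpoint = highest concentration. GI50 is the concentration that inhibits growth by half.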 Calls of active or inactive are those of the source. Cut-off read from the data, not from the text of the source: active = GI50 up to about 1.1 µM and inactive = higher.
Legend:
Test in all cases: NCI anticancer screen, dose series, 48 h
[1] = tested on: M19-MEL
[2] = tested on: DMS-273
[3] = tested on: HCT-15
[4] = tested on: A498
[5] = tested on: DMS-114
[6] = tested on: EKVX
[7] = tested on: UACC-257
[8] = tested on: HOP-62
[9] = tested on: LXFL 529
[10] = tested on: SF-295
[11] = tested on: OVCAR-8
[12] = tested on: OVCAR-5
[13] = tested on: K562
[14] = tested on: COLO 205
[15] = tested on: HT-29
[16] = tested on: HCT-116
[17] = tested on: OVCAR-4
[18] = tested on: 786-0
[19] = tested on: RXF 393
[20] = tested on: HOP-92
[21] = tested on: HCC 2998
[22] = tested on: NCI-H522
[23] = tested on: SW-620
[24] = tested on: HL-60
[25] = tested on: ACHN
[26] = tested on: SNB-19
[27] = tested on: RPMI-8226
[28] = tested on: SNB-78
[29] = tested on: HOP-18
[30] = tested on: XF498
[31] = tested on: U-251
[32] = tested on: M14
[33] = tested on: IGROV-1
[34] = tested on: SK-OV-3
[35] = tested on: CCRF-CEM
[36] = tested on: SK-MEL-2
[37] = tested on: OVCAR-3
[38] = tested on: KM12
[39] = tested on: Malme-3M
[40] = tested on: A549
[41] = tested on: SN12C
[42] = tested on: KM-20L2
[43] = tested on: UACC-62
[44] = tested on: SF-539
[45] = tested on: SK-MEL-5
[46] = tested on: NCI-H23
[47] = tested on: SK-MEL-28
[48] = tested on: TK-10
[49] = tested on: SNB-75
[50] = tested on: MOLT-4
[51] = tested on: CAKI-1
[52] = tested on: SF-268
[53] = tested on: NCI-H460
[54] = tested on: SR
[55] = tested on: LOX IMVI
[56] = tested on: UO-31
[57] = tested on: DLD-1
[58] = tested on: NCI-H226

## O=C(Sc1sc(=S)sc1SC(=O)c1ccccc1)c1ccccc1
[1]
  GI50: 21.7 µM (inactive)
[2]
  GI50: 53 µM (inactive)
[3]
  GI50: > 100 µM
[4]
  GI50: 31.5 µM (inactive)
[5]
  GI50: > 100 µM (inactive)
[6]
  GI50: 53.8 µM (inactive)
[7]
  GI50: > 100 µM (inactive)
[8]
  GI50: 25.4 µM (inactive)
[9]
  GI50: > 100 µM (inactive)
[10]
  GI50: 33.7 µM (inactive)
[11]
  GI50: 83.4 µM (inactive)
[12]
  GI50: 33.1 µM (inactive)
[13]
  GI50: > 100 µM (inactive)
[14]
  GI50: > 100 µM (inactive)
[15]
  GI50: 36.6 µM (inactive)
[16]
  GI50: 71.1 µM (inactive)
[17]
  GI50: > 100 µM (inactive)
[18]
  GI50: > 100 µM (inactive)
[19]
  GI50: > 100 µM (inactive)
[20]
  GI50: 50.6 µM (inactive)
[21]
  GI50: 34.2 µM (inactive)
[22]
  GI50: > 100 µM (inactive)
[23]
  GI50: > 100 µM (inactive)
[24]
  GI50: > 100 µM (inactive)
[25]
  GI50: > 100 µM (inactive)
[26]
  GI50: 37.1 µM (inactive)
[27]
  GI50: > 100 µM (inactive)
[28]
  GI50: > 100 µM (inactive)
[29]
  GI50: > 100 µM (inactive)
[30]
  GI50: 55.2 µM (inactive)
[31]
  GI50: 28.8 µM (inactive)
[32]
  GI50: 68.9 µM (inactive)
[33]
  GI50: 43.2 µM (inactive)
[34]
  GI50: 22.9 µM (inactive)
[35]
  GI50: > 100 µM (inactive)
[36]
  GI50: 41.4 µM (inactive)
[37]
  GI50: > 100 µM (inactive)
[38]
  GI50: 37.4 µM (inactive)
[39]
  GI50: 78.3 µM (inactive)
[40]
  GI50: 27.6 µM (inactive)
[41]
  GI50: 93.5 µM (inactive)
[42]
  GI50: 48.2 µM (inactive)
[43]
  GI50: 21.9 µM (inactive)
[44]
  GI50: 46.2 µM (inactive)
[45]
  GI50: > 100 µM (inactive)
[46]
  GI50: > 100 µM (inactive)
[47]
  GI50: > 100 µM (inactive)
[48]
  GI50: > 100 µM (inactive)
[49]
  GI50: 30.3 µM (inactive)
[50]
  GI50: > 100 µM (inactive)
[51]
  GI50: > 100 µM (inactive)
[52]
  GI50: 62.1 µM (inactive)
[53]
  GI50: > 10 µM (inactive)

## C#CCC(N)(CO)C(=O)O (configuration not stated)
[1]
  GI50: > 100 µM (inactive)
[2]
  GI50: > 100 µM (inactive)
[3]
  GI50: > 100 µM
[4]
  GI50: > 100 µM (inactive)
[5]
  GI50: > 100 µM (inactive)
[6]
  GI50: > 100 µM (inactive)
[7]
  GI50: > 100 µM (inactive)
[8]
  GI50: > 100 µM (inactive)
[9]
  GI50: > 100 µM (inactive)
[10]
  GI50: > 100 µM (inactive)
[11]
  GI50: > 100 µM (inactive)
[12]
  GI50: > 100 µM (inactive)
[54]
  GI50: > 100 µM (inactive)
[13]
  GI50: > 100 µM (inactive)
[14]
  GI50: > 100 µM (inactive)
[15]
  GI50: > 100 µM (inactive)
[16]
  GI50: > 100 µM (inactive)
[17]
  GI50: > 100 µM (inactive)
[18]
  GI50: > 100 µM (inactive)
[20]
  GI50: > 100 µM (inactive)
[21]
  GI50: > 100 µM (inactive)
[22]
  GI50: > 100 µM (inactive)
[23]
  GI50: > 100 µM (inactive)
[24]
  GI50: > 100 µM (inactive)
[25]
  GI50: > 100 µM (inactive)
[26]
  GI50: > 100 µM (inactive)
[27]
  GI50: > 100 µM (inactive)
[28]
  GI50: > 100 µM (inactive)
[55]
  GI50: > 100 µM (inactive)
[29]
  GI50: > 100 µM (inactive)
[30]
  GI50: > 100 µM (inactive)
[31]
  GI50: > 100 µM (inactive)
[32]
  GI50: > 100 µM (inactive)
[33]
  GI50: > 100 µM (inactive)
[34]
  GI50: > 100 µM (inactive)
[56]
  GI50: > 100 µM (inactive)
[35]
  GI50: > 10 µM (inactive)
[36]
  GI50: > 100 µM (inactive)
[37]
  GI50: > 100 µM (inactive)
[38]
  GI50: > 100 µM (inactive)
[57]
  GI50: > 100 µM (inactive)
[39]
  GI50: > 100 µM (inactive)
[40]
  GI50: > 100 µM (inactive)
[43]
  GI50: > 100 µM (inactive)
[58]
  GI50: > 100 µM (inactive)
[44]
  GI50: > 100 µM (inactive)
[45]
  GI50: > 100 µM (inactive)
[46]
  GI50: > 100 µM (inactive)
[47]
  GI50: > 100 µM (inactive)
[48]
  GI50: > 100 µM (inactive)
[49]
  GI50: 82.6 µM (inactive)
[50]
  GI50: > 100 µM (inactive)
[51]
  GI50: > 100 µM (inactive)
[52]
  GI50: > 100 µM (inactive)
[53]
  GI50: > 100 µM (inactive)

## O=c1cccccc1O.O=c1cccccc1O.O=c1cccccc1O.[SiH4]
[1]
  GI50: 18.8 µM (inactive)
[2]
  GI50: 14.5 µM (inactive)
[4]
  GI50: 34.4 µM (inactive)
[5]
  GI50: 11.7 µM (inactive)
[6]
  GI50: < 0.01 µM (active)
[7]
  GI50: 21 µM (inactive)
[8]
  GI50: 28.4 µM (inactive)
[9]
  GI50: 18.8 µM (inactive)
[10]
  GI50: 41.2 µM (inactive)
[11]
  GI50: 11.5 µM (inactive)
[12]
  GI50: 28.6 µM (inactive)
[13]
  GI50: 6.87 µM (inactive)
[14]
  GI50: 11 µM (inactive)
[15]
  GI50: 33.4 µM (inactive)
[16]
  GI50: 13.6 µM (inactive)
[17]
  GI50: 11.9 µM (inactive)
[18]
  GI50: 33 µM (inactive)
[20]
  GI50: 37.9 µM (inactive)
[21]
  GI50: 32.4 µM (inactive)
[22]
  GI50: 2.33 µM (inactive)
[23]
  GI50: 10.4 µM (inactive)
[25]
  GI50: 10 µM (inactive)
[26]
  GI50: > 100 µM (inactive)
[27]
  GI50: 9.73 µM (inactive)
[29]
  GI50: 65.9 µM (inactive)
[30]
  GI50: 17.7 µM (inactive)
[31]
  GI50: 21.3 µM (inactive)
[32]
  GI50: 33.5 µM (inactive)
[33]
  GI50: 12.8 µM (inactive)
[34]
  GI50: 31.8 µM (inactive)
[56]
  GI50: 25.2 µM (inactive)
[35]
  GI50: 2.64 µM (inactive)
[37]
  GI50: 24.2 µM (inactive)
[38]
  GI50: 26.8 µM (inactive)
[57]
  GI50: 6.43 µM (inactive)
[39]
  GI50: 54.6 µM (inactive)
[40]
  GI50: 25.6 µM (inactive)
[41]
  GI50: 25.3 µM (inactive)
[42]
  GI50: 3.75 µM (inactive)
[43]
  GI50: 0.822 µM (active)
[44]
  GI50: 18.3 µM (inactive)
[45]
  GI50: 24.8 µM (inactive)
[46]
  GI50: 16.5 µM (inactive)
[47]
  GI50: 55.1 µM (inactive)
[48]
  GI50: 74 µM (inactive)
[49]
  GI50: 29.1 µM (inactive)
[50]
  GI50: 5.74 µM (inactive)
[51]
  GI50: 56.2 µM (inactive)
[52]
  GI50: 42.9 µM (inactive)

From ChEMBL document CHEMBL1201862, “PubChem BioAssay data set” (2004)
